Measured values from patent US20240132503A1, “SALT FORM AND CRYSTAL FORM OF PYRAZOLE SUBSTITUTED IMIDAZO[1,2- A]QUINOXALINE DERIVATIVE” (OCUMENSION THERAPEUTICS (SUZHOU) CO., LTD, priority 2021, published 2024).
Like-named read-outs stand apart in the source and are kept apart here.

Legend:
[1] = Pharmacokinetics in plasma and eye tissues of male SD rats after single administration of eye drop; type: in vivo; conditions: for half-life / AUC(0-t) / Cmax / Tmax / AUC(0-inf) / MRT inf / Kp / MRT last: rat, topical or ocular; for AUC(0-inf) / MRT inf: extrapolated; for MRT inf: read-out: MRT0-inf; for Kp: read-out: AUC ratio (tissue AUC0-last/plasma AUC0-last); for MRT last: read-out: MRT0-last
Method: Test purpose: to study pharmacokinetics of the compound in eye tissues of male SD rats after single administration of eye drop
Test material: SD rats (male, 7 to 10 weeks of age, WTLH/SLAC)
Test operation: In this test, 18 male SD rats were provided by Beijing Vital River Laboratory Animal Technology Co., Ltd., and were randomly divided into 6 groups (3 rats/group), and each group of animals were given […] (5 mg/mL for both eyes, 30 μL/eye) of OT202 eye drops during single administration. All animals were not fasted before administration.

[2] = target: Syk protein kinase (Homo sapiens (Human), UniProt P43405); assay: In vitro evaluation of inhibitory activity against Syk protein kinase (HTRF KinEASE TK); type: biochemical
Excerpt: Test purpose: to measure an inhibitory IC50 value of the compounds against Syk protein kinase.
Test material: Syk kinase (Invitrogen, PV3857) • DTT (Sigma#43815): dithiothreitol • ATP (Sigma#A7699): triphosadenine • MgCl2 (Sigma#63020): magnesium chloride • MnCl2 (Sigma#M1787): manganese chloride • EDTA (Invitrogen#15575-020): ethylenediaminetetraacetic acid • HEPES Buffer (Invitrogen#15630-080): zwitterionic sulfonic acid buffer • HTRF® KinEASE™ TK (Cisbio#62TK0PEC, 20000 tests): HTRF kinase kit • Low volume, 384-well, white polystyrene plate (Greiner#784075) • 384-well microplates (Greiner#781946) • Centrifuge (Eppendorf#5810R) • Micropipette (Eppendorf) • Pipette (Greiner) • Pipettor (Eppendorf) • Mutidorp injector • POD 810 Plate Assembler Fully Automatic Microplate Pretreatment System • Envision Reader […]

[3] = SD (Sprague-Dawley), male SD rats, single eye drop 5 mg/mL, 30 μL/eye, both eyes, Aqueous humor of anterior chamber
[4] = SD (Sprague-Dawley), male SD rats, single eye drop 5 mg/mL, 30 μL/eye, both eyes, Bulbar conjunctiva
[5] = SD (Sprague-Dawley), male SD rats, single eye drop 5 mg/mL, 30 μL/eye, both eyes, Cornea
[6] = SD (Sprague-Dawley), male SD rats, single eye drop 5 mg/mL, 30 μL/eye, both eyes, Plasma
[7] = SD (Sprague-Dawley), male SD rats, single eye drop 5 mg/mL, 30 μL/eye, both eyes, Upper and lower eyelids
[8] = male SD rats, single eye drop 5 mg/mL, 30 μL/eye, both eyes, Aqueous humor of anterior chamber
[9] = male SD rats, single eye drop 5 mg/mL, 30 μL/eye, both eyes, Bulbar conjunctiva
[10] = male SD rats, single eye drop 5 mg/mL, 30 μL/eye, both eyes, Cornea
[11] = male SD rats, single eye drop 5 mg/mL, 30 μL/eye, both eyes, Plasma
[12] = male SD rats, single eye drop 5 mg/mL, 30 μL/eye, both eyes, Upper and lower eyelids

- half-life ([1]; SD (Sprague-Dawley), both eyes, male SD rats, single eye drop 5 mg/mL, 30 μL/eye, Aqueous humor of anterior chamber, sampling range 6-24 h): 12.3 h
- half-life ([1]; SD (Sprague-Dawley), both eyes, male SD rats, single eye drop 5 mg/mL, 30 μL/eye, Bulbar conjunctiva, sampling range 1-24 h, linear regression coefficient of elimination phase less than 0.9): 5.12 h
- half-life ([1]; SD (Sprague-Dawley), both eyes, male SD rats, single eye drop 5 mg/mL, 30 μL/eye, Cornea, sampling range 1-24 h): 4.84 h
- half-life ([1]; SD (Sprague-Dawley), both eyes, male SD rats, single eye drop 5 mg/mL, 30 μL/eye, Plasma, sampling range 1-6 h, linear regression coefficient of elimination phase less than 0.9): 4.8 h
- half-life ([1]; SD (Sprague-Dawley), both eyes, male SD rats, single eye drop 5 mg/mL, 30 μL/eye, Upper and lower eyelids, sampling range 1-24 h): 9.45 h
- AUC(0-t) [1, 3]: 657 nM·h
- Cmax [1, 3]: 0.56 µM
- Tmax [1, 3]: 0.5 h
- AUC(0-inf) [1, 3]: 711 nM·h
- AUC(0-t) [1, 4]: 15500 nM·h
- Cmax [1, 4]: 4.51 µM
- Tmax [1, 4]: 0.5 h
- AUC(0-inf) [1, 4]: 16400 nM·h
- AUC(0-t) [1, 5]: 2530 nM·h
- Cmax [1, 5]: 1.59 µM
- Tmax [1, 5]: 0.5 h
- AUC(0-t) [1, 6]: 5.32 nM·h
- Cmax [1, 6]: 0.00123 µM
- Tmax [1, 6]: 1 h
- AUC(0-inf) [1, 6]: 9.56 nM·h
- AUC(0-t) [1, 7]: 65500 nM·h
- Cmax [1, 7]: 10.4 µM
- Tmax [1, 7]: 0.5 h
- pharmacokinetic features, including eye-to-blood ratio, tissue exposure ([1]; conclusion in words): good pharmacokinetic features
- AUC0-inf/AUC0-last (%) [1, 8]: 108%
- Tlast [1, 8]: 24.0 h
- AUC0-inf/AUC0-last (%) [1, 9]: 106%
- Tlast [1, 9]: 24.0 h
- AUC0-inf/AUC0-last (%) [1, 10]: 102%
- Tlast [1, 10]: 24.0 h
- AUC0-inf/AUC0-last (%) [1, 11]: 180%
- Tlast [1, 11]: 6.00 h
- AUC0-inf/AUC0-last (%) [1, 12]: 122%
- AUC ratio (tissue AUC0-last/plasma AUC0-last) [1, 12]: 12300
- Tlast [1, 12]: 24.0 h
- MRT inf [1, 8]: 6.27 h
- Kp [1, 8]: 123
- MRT last [1, 8]: 3.35 h
- MRT inf [1, 9]: 6.73 h
- Kp [1, 9]: 2910
- MRT last [1, 9]: 5.28 h
- AUC(0-inf) [1, 10]: 2590 nM·h
- MRT inf [1, 10]: 5.74 h
- Kp [1, 10]: 476
- MRT last [1, 10]: 5.05 h
- MRT inf [1, 11]: 7.39 h
- MRT last [1, 11]: 2.98 h
- AUC(0-inf) [1, 12]: 80000 nM·h
- MRT inf [1, 12]: 13.7 h
- MRT last [1, 12]: 8.4 h
- IC50 ([2]; ATP 2 μM): 25 nM
- inhibitory activity against Syk ([2]; conclusion in words): good inhibitory activity
SMILES: c1cn2c(n1)c(Nc1ccc(N3CCOCC3)cc1)nc1ccc(-c3cn[nH]c3)cc12
